# Test system: Dsg2^mut/mut mice
# Test: Cytokine arrays, cytokine expression in hearts of Dsg2^mut/mut mice treated with Bay 11-7082
# Assay type: in vivo
# From the text: Quantitative data (mean±SEM; n=5) for expression of selected cytokines in hearts of vehicle-treated wildtype (WT) mice, Dsg2^mut/mut mice and Dsg2^mut/mut mice treated with Bay 11-7082. * P<0.05 compared to WT; †P<0.05 for treated vs. untreated Dsg2^mut/mut mice.
# To characterize production of chemical mediators of the immune response in ACM, we used arrays to measure 111 different cytokines in the hearts of Dsg2^mut/mut mice and compared the amounts to those measured in the hearts of WT mice and Dsg2^mut/mut mice treated with Bay 11-7082. We observed substantial expression of multiple cytokines in the hearts of Dsg2^mut/mut mice. […] Powerful inflammatory mediators were expressed in Dsg2^mut/mut hearts including IL-1β (up by ~13-fold compared to WT hearts), IFNγ (~5-fold), IL-12 (~6-fold) and TNFα (~2-fold). […] Finally, there were increases in some molecules that fulfill anti-inflammatory roles such as IL-1Ra (up by ~4-fold).
# [1] = cytokine expression level, mouse heart
compound,measurement,setting,value
Cc1ccc(S(=O)(=O)/C=C/C#N)cc1 [Bay11-7082],LIX (CXCL5) level,"ACM (Dsg2^mut/mut) mice treated with Bay 11-7082, result in words",markedly reduced
same,OPN expression,"Dsg2^mut/mut mice treated with Bay 11-7082, result in words",reduced
same,"Adiponectin, Dsg2^mut/mut (Bay11-7082) vs Dsg2^mut/mut",[1],<1
same,"Adiponectin, Dsg2^mut/mut (Bay11-7082) vs WT",[1],<1
same,"Amphiregulin, Dsg2^mut/mut (Bay11-7082) vs Dsg2^mut/mut",[1],<1
same,"Amphiregulin, Dsg2^mut/mut (Bay11-7082) vs WT",[1],<1
same,"Angiopoietin-1, Dsg2^mut/mut (Bay11-7082) vs Dsg2^mut/mut",[1],<1
same,"Angiopoietin-1, Dsg2^mut/mut (Bay11-7082) vs WT",[1],<1
same,"Angiopoietin-2, Dsg2^mut/mut (Bay11-7082) vs Dsg2^mut/mut",[1],1-2
same,"Angiopoietin-2, Dsg2^mut/mut (Bay11-7082) vs WT",[1],<1
same,"Angiopoietin-like 3, Dsg2^mut/mut (Bay11-7082) vs Dsg2^mut/mut",[1],<1
same,"Angiopoietin-like 3, Dsg2^mut/mut (Bay11-7082) vs WT",[1],<1
same,"BAFF/BLyS/TNFSF13B, Dsg2^mut/mut (Bay11-7082) vs Dsg2^mut/mut",[1],<1
same,"BAFF/BLyS/TNFSF13B, Dsg2^mut/mut (Bay11-7082) vs WT",[1],<1
same,"C1qR1/CD93, Dsg2^mut/mut (Bay11-7082) vs Dsg2^mut/mut",[1],<1
same,"C1qR1/CD93, Dsg2^mut/mut (Bay11-7082) vs WT",[1],<1
same,"C-Reactive Protein/CRP, Dsg2^mut/mut (Bay11-7082) vs Dsg2^mut/mut",[1],<1
same,"C-Reactive Protein/CRP, Dsg2^mut/mut (Bay11-7082) vs WT",[1],<1
same,"CCL2/JE/MCP-1, Dsg2^mut/mut (Bay11-7082) vs Dsg2^mut/mut",[1],<1
same,"CCL2/JE/MCP-1, Dsg2^mut/mut (Bay11-7082) vs WT",[1],<1
same,"CCL3/CCL4/MIP-1a/B, Dsg2^mut/mut (Bay11-7082) vs Dsg2^mut/mut",[1],<1
same,"CCL3/CCL4/MIP-1a/B, Dsg2^mut/mut (Bay11-7082) vs WT",[1],<1
same,"CCL5/RANTES, Dsg2^mut/mut (Bay11-7082) vs Dsg2^mut/mut",[1],<1
same,"CCL5/RANTES, Dsg2^mut/mut (Bay11-7082) vs WT",[1],<1
same,"CCL6/C10, Dsg2^mut/mut (Bay11-7082) vs Dsg2^mut/mut",[1],<1
same,"CCL6/C10, Dsg2^mut/mut (Bay11-7082) vs WT",[1],<1
same,"CCL17/TARC, Dsg2^mut/mut (Bay11-7082) vs Dsg2^mut/mut",[1],<1
same,"CCL17/TARC, Dsg2^mut/mut (Bay11-7082) vs WT",[1],<1
same,"CCL19/MIP-3B, Dsg2^mut/mut (Bay11-7082) vs Dsg2^mut/mut",[1],<1
same,"CCL19/MIP-3B, Dsg2^mut/mut (Bay11-7082) vs WT",[1],<1
same,"CCL20/MIP-3a, Dsg2^mut/mut (Bay11-7082) vs Dsg2^mut/mut",[1],<1
same,"CCL20/MIP-3a, Dsg2^mut/mut (Bay11-7082) vs WT",[1],<1
same,"CCL21/6Ckine, Dsg2^mut/mut (Bay11-7082) vs Dsg2^mut/mut",[1],<1
same,"CCL21/6Ckine, Dsg2^mut/mut (Bay11-7082) vs WT",[1],<1
same,"CCL22/MDC, Dsg2^mut/mut (Bay11-7082) vs Dsg2^mut/mut",[1],<1
same,"CCL22/MDC, Dsg2^mut/mut (Bay11-7082) vs WT",[1],<1
same,"CD14, Dsg2^mut/mut (Bay11-7082) vs Dsg2^mut/mut",[1],1-2
same,"CD14, Dsg2^mut/mut (Bay11-7082) vs WT",[1],<1
same,"CD40/TNFRSF5, Dsg2^mut/mut (Bay11-7082) vs Dsg2^mut/mut",[1],<1
same,"CD40/TNFRSF5, Dsg2^mut/mut (Bay11-7082) vs WT",[1],<1
same,"CD160, Dsg2^mut/mut (Bay11-7082) vs Dsg2^mut/mut",[1],<1
same,"CD160, Dsg2^mut/mut (Bay11-7082) vs WT",[1],<1
same,"CX3CL1/Fractalkine, Dsg2^mut/mut (Bay11-7082) vs Dsg2^mut/mut",[1],<1
same,"CX3CL1/Fractalkine, Dsg2^mut/mut (Bay11-7082) vs WT",[1],<1
same,"CXCL9/MIG, Dsg2^mut/mut (Bay11-7082) vs Dsg2^mut/mut",[1],<1
same,"CXCL9/MIG, Dsg2^mut/mut (Bay11-7082) vs WT",[1],<1
same,"CXCL13/BLC/BCA-1, Dsg2^mut/mut (Bay11-7082) vs Dsg2^mut/mut",[1],<1
same,"CXCL13/BLC/BCA-1, Dsg2^mut/mut (Bay11-7082) vs WT",[1],2-4
same,"CXCL16, Dsg2^mut/mut (Bay11-7082) vs Dsg2^mut/mut",[1],<1
same,"CXCL16, Dsg2^mut/mut (Bay11-7082) vs WT",[1],<1
same,"Chemerin, Dsg2^mut/mut (Bay11-7082) vs Dsg2^mut/mut",[1],<1
same,"Chemerin, Dsg2^mut/mut (Bay11-7082) vs WT",[1],<1
same,"Chitinase 3-like 1, Dsg2^mut/mut (Bay11-7082) vs Dsg2^mut/mut",[1],<1
same,"Chitinase 3-like 1, Dsg2^mut/mut (Bay11-7082) vs WT",[1],<1
same,"Coagulation Factor III/Tissue Factor, Dsg2^mut/mut (Bay11-7082) vs Dsg2^mut/mut",[1],<1
same,"Coagulation Factor III/Tissue Factor, Dsg2^mut/mut (Bay11-7082) vs WT",[1],<1
same,"Complement Component C5/C5a, Dsg2^mut/mut (Bay11-7082) vs Dsg2^mut/mut",[1],<1
same,"Complement Component C5/C5a, Dsg2^mut/mut (Bay11-7082) vs WT",[1],<1
same,"Complement Factor D, Dsg2^mut/mut (Bay11-7082) vs Dsg2^mut/mut",[1],<1
same,"Complement Factor D, Dsg2^mut/mut (Bay11-7082) vs WT",[1],<1
same,"Cystatin C, Dsg2^mut/mut (Bay11-7082) vs Dsg2^mut/mut",[1],<1
same,"Cystatin C, Dsg2^mut/mut (Bay11-7082) vs WT",[1],<1
same,"DKK-1, Dsg2^mut/mut (Bay11-7082) vs Dsg2^mut/mut",[1],<1
same,"DKK-1, Dsg2^mut/mut (Bay11-7082) vs WT",[1],<1
same,"DPPIV/CD26, Dsg2^mut/mut (Bay11-7082) vs Dsg2^mut/mut",[1],<1
same,"DPPIV/CD26, Dsg2^mut/mut (Bay11-7082) vs WT",[1],1-2
same,"E-Selectin/CD62E, Dsg2^mut/mut (Bay11-7082) vs Dsg2^mut/mut",[1],<1
same,"E-Selectin/CD62E, Dsg2^mut/mut (Bay11-7082) vs WT",[1],<1
same,"EGF, Dsg2^mut/mut (Bay11-7082) vs Dsg2^mut/mut",[1],<1
same,"EGF, Dsg2^mut/mut (Bay11-7082) vs WT",[1],1-2
same,"Endoglin/CD105, Dsg2^mut/mut (Bay11-7082) vs Dsg2^mut/mut",[1],<1
same,"Endoglin/CD105, Dsg2^mut/mut (Bay11-7082) vs WT",[1],<1
same,"Endostatin, Dsg2^mut/mut (Bay11-7082) vs Dsg2^mut/mut",[1],<1
same,"Endostatin, Dsg2^mut/mut (Bay11-7082) vs WT",[1],<1
same,"Eotaxin (CCL11), Dsg2^mut/mut (Bay11-7082) vs Dsg2^mut/mut",[1],<1
same,"Eotaxin (CCL11), Dsg2^mut/mut (Bay11-7082) vs WT",[1],<1
same,"FGF acidic, Dsg2^mut/mut (Bay11-7082) vs Dsg2^mut/mut",[1],<1
same,"FGF acidic, Dsg2^mut/mut (Bay11-7082) vs WT",[1],<1
same,"FGF-21, Dsg2^mut/mut (Bay11-7082) vs Dsg2^mut/mut",[1],<1
same,"FGF-21, Dsg2^mut/mut (Bay11-7082) vs WT",[1],<1
same,"FLt-3 Ligand, Dsg2^mut/mut (Bay11-7082) vs Dsg2^mut/mut",[1],<1
same,"FLt-3 Ligand, Dsg2^mut/mut (Bay11-7082) vs WT",[1],<1
same,"Fetuin A/AHSG, Dsg2^mut/mut (Bay11-7082) vs Dsg2^mut/mut",[1],<1
same,"Fetuin A/AHSG, Dsg2^mut/mut (Bay11-7082) vs WT",[1],<1
same,"G-CSF, Dsg2^mut/mut (Bay11-7082) vs Dsg2^mut/mut",[1],<1
same,"G-CSF, Dsg2^mut/mut (Bay11-7082) vs WT",[1],1-2
same,"GDF-15, Dsg2^mut/mut (Bay11-7082) vs Dsg2^mut/mut",[1],<1
same,"GDF-15, Dsg2^mut/mut (Bay11-7082) vs WT",[1],<1
same,"GM-CSF, Dsg2^mut/mut (Bay11-7082) vs Dsg2^mut/mut",[1],<1
same,"GM-CSF, Dsg2^mut/mut (Bay11-7082) vs WT",[1],<1
same,"Gas 6, Dsg2^mut/mut (Bay11-7082) vs Dsg2^mut/mut",[1],<1
same,"Gas 6, Dsg2^mut/mut (Bay11-7082) vs WT",[1],<1
same,"HGF, Dsg2^mut/mut (Bay11-7082) vs Dsg2^mut/mut",[1],<1
same,"HGF, Dsg2^mut/mut (Bay11-7082) vs WT",[1],4-6
same,"I-TAC (CXCL11), Dsg2^mut/mut (Bay11-7082) vs Dsg2^mut/mut",[1],<1
same,"I-TAC (CXCL11), Dsg2^mut/mut (Bay11-7082) vs WT",[1],<1
same,"IFN-y, Dsg2^mut/mut (Bay11-7082) vs Dsg2^mut/mut",[1],<1
same,"IFN-y, Dsg2^mut/mut (Bay11-7082) vs WT",[1],1-2
same,"IGFBP-1, Dsg2^mut/mut (Bay11-7082) vs Dsg2^mut/mut",[1],<1
same,"IGFBP-1, Dsg2^mut/mut (Bay11-7082) vs WT",[1],1-2
same,"IGFBP-2, Dsg2^mut/mut (Bay11-7082) vs Dsg2^mut/mut",[1],<1
same,"IGFBP-2, Dsg2^mut/mut (Bay11-7082) vs WT",[1],<1
same,"IGFBP-3, Dsg2^mut/mut (Bay11-7082) vs Dsg2^mut/mut",[1],<1
same,"IGFBP-3, Dsg2^mut/mut (Bay11-7082) vs WT",[1],<1
same,"IGFBP-5, Dsg2^mut/mut (Bay11-7082) vs Dsg2^mut/mut",[1],<1
same,"IGFBP-5, Dsg2^mut/mut (Bay11-7082) vs WT",[1],<1
same,"IGFBP-6, Dsg2^mut/mut (Bay11-7082) vs Dsg2^mut/mut",[1],<1
same,"IGFBP-6, Dsg2^mut/mut (Bay11-7082) vs WT",[1],<1
same,"IL-1a (IL-1F1), Dsg2^mut/mut (Bay11-7082) vs Dsg2^mut/mut",[1],<1
same,"IL-1a (IL-1F1), Dsg2^mut/mut (Bay11-7082) vs WT",[1],<1
same,"IL-1ra (IL-1F3), Dsg2^mut/mut (Bay11-7082) vs Dsg2^mut/mut",[1],<1
same,"IL-1ra (IL-1F3), Dsg2^mut/mut (Bay11-7082) vs WT",[1],1-2

# Reference: patent US12708665B2, “Anti-IL-1β antibody therapy in arrhythmogenic cardiomyopathy (ACM)” (Beth Israel Deaconess Medical Center, Inc., priority 2019, dated 2026)
